Source: EP4635500A1, “THERAPEUTIC AGENT FOR BACTERIAL INFECTION” (Sumitomo Pharma Co., Ltd., priority 2022, dated 2024)
Values after ≈ are worked out from the molar mass of the structure shown. Like-named read-outs stand apart in the source and are kept apart here.

Columns and labels:
Assay type in all cases: cell-based
Acinetobacter baumannii = assay: MIC and MBC, broth microdilution (Example 4, Table 3); details: for MBC: Acinetobacter baumannii
Gram-positive bacteria = assay: MIC, agar dilution, anaerobic bacteria (Example 9, Tables 21, 26)
Klebsiella pneumoniae = assay: MIC and MBC, broth microdilution (Example 4, Table 3); details: Klebsiella pneumoniae; for MIC: read-out: MIC
Bacteroides spp. = assay: MIC, agar dilution, anaerobic bacteria (Example 9, Tables 17, 22); details: for MIC: (n)=Compound A µg/mL, 0=Compound A alone antibacterial
Enterobacter aerogenes = assay: MIC and MBC, broth microdilution (Example 4, Table 3); details: Klebsiella aerogenes
Serratia marcescens = assay: as above; details: Serratia marcescens CDC-124 (SME-3)
[1] = system: Enterobacter cloacae complex; assay: as above; details: Enterobacter cloacae complex CDC-164 (NMC-A)
Morganella morganii = assay: as above; details: Morganella morganii CDC-57 (NDM-1)
[2] = Acinetobacter baumannii CDC-303 (OXA-23, OXA-66)
[3] = ATCCBAA2344, Klebsiella pneumoniae ATCC BAA-2344 (KPC-2)
[4] = ATCCBAA2470, Klebsiella pneumoniae ATCC BAA-2470 (NDM-1)
[5] = ATCCBAA2524, Klebsiella pneumoniae ATCC BAA-2524 (OXA-48)
[6] = Klebsiella pneumoniae CDC-112 (KPC-3)
[7] = Klebsiella pneumoniae CDC-505 (NDM-1)
[8] = Klebsiella pneumoniae KUB3607 (IMP-1)
[9] = NCTC13440, Klebsiella pneumoniae NCTC13440 (VIM-1)

C[C@@H](O)[C@H]1C(=O)N2C(C(=O)O)=C(S[C@@H]3CN[C@H](C(=O)N(C)C)C3)[C@H](C)[C@H]12 [MEPM, meropenem]
MIC (Acinetobacter baumannii; [2]): 64 µg/mL (≈ 167 µM) | MIC (Acinetobacter baumannii; Acinetobacter baumannii CDC-304 (OXA-66, OXA-72), read-out: MIC): 64 µg/mL (≈ 167 µM) | MBC (Acinetobacter baumannii; [2]): 64 µg/mL (≈ 167 µM) | MBC (Acinetobacter baumannii; Acinetobacter baumannii CDC-304 (OXA-66, OXA-72)): 64 µg/mL (≈ 167 µM) | MIC50 (Gram-positive bacteria): 0.06 µg/mL (≈ 0.156 µM) | MIC90 (Gram-positive bacteria): 2 µg/mL (≈ 5.22 µM) | MIC (Gram-positive bacteria; ATCC43255, KUB No. 3518 Clostridioides difficile ATCC 43255, read-out: MIC): 2 µg/mL (≈ 5.22 µM) | MIC (Gram-positive bacteria; ATCC700057, KUB No. 2978 Clostridioides difficile ATCC 700057, read-out: MIC): 2 µg/mL (≈ 5.22 µM) | MIC (Gram-positive bacteria; ATCCBAA1803, KUB No. 3511 Clostridioides difficile ATCC BAA-1803, read-out: MIC): 4 µg/mL (≈ 10.4 µM) | MIC (Gram-positive bacteria; ATCCBAA1870, KUB No. 3385 Clostridioides difficile ATCC BAA-1870, read-out: MIC): 4 µg/mL (≈ 10.4 µM) | MIC (Gram-positive bacteria; Cutibacterium acnes, ATCC11827): ≤ 0.03 µg/mL | MIC (Gram-positive bacteria; Eggerthella lenta, ATCC43055): 0.5 µg/mL (≈ 1.3 µM) | MIC (Gram-positive bacteria; Finegoldia magna, ATCC29328): 0.06 µg/mL (≈ 0.156 µM) | MICrange (Gram-positive bacteria; Gram-positive bacteria): ≤0.03 to 4 µg/mL | MIC50 (Gram-positive bacteria; Gram-positive bacteria, read-out: MIC50): 0.06 µg/mL (≈ 0.156 µM) | MIC90 (Gram-positive bacteria; Gram-positive bacteria, read-out: MIC90): 2 µg/mL (≈ 5.22 µM) | MIC (Gram-positive bacteria; KUB No. 3013 Bulleidia extructa, read-out: MIC): 0.12 µg/mL (≈ 0.313 µM) | MIC (Gram-positive bacteria; KUB No. 3014 Atropobium rimae, read-out: MIC): 0.06 µg/mL (≈ 0.156 µM) | MIC (Gram-positive bacteria; Olsenella uli): ≤ 0.03 µg/mL | MIC (Gram-positive bacteria; Peptoniphilus asaccharolyticus, ATCC14963): ≤ 0.03 µg/mL | MIC (Gram-positive bacteria; Peptoniphilus indolicus): ≤ 0.03 µg/mL | MIC (Gram-positive bacteria; Peptostreptococcus anaerobius): 2 µg/mL (≈ 5.22 µM) | MIC (Gram-positive bacteria; Schaalia odontolytica, ATCC17929, KUB No. 3488 Actinomyces odontolyticus ATCC 17929, read-out: MIC): 0.12 µg/mL (≈ 0.313 µM) | MBC (Klebsiella pneumoniae; [3]): 32 µg/mL (≈ 83.4 µM) | MIC (Klebsiella pneumoniae; [3]): 16 µg/mL (≈ 41.7 µM) | MBC (Klebsiella pneumoniae; [4]): 32 µg/mL (≈ 83.4 µM) | MIC (Klebsiella pneumoniae; [4]): 32 µg/mL (≈ 83.4 µM) | MBC (Klebsiella pneumoniae; [5]): 4 µg/mL (≈ 10.4 µM) | MIC (Klebsiella pneumoniae; [5]): 1 µg/mL (≈ 2.61 µM) | MBC (Klebsiella pneumoniae; [6]): 32 µg/mL (≈ 83.4 µM) | MIC (Klebsiella pneumoniae; [6]): 32 µg/mL (≈ 83.4 µM) | MBC (Klebsiella pneumoniae; [7]): 64 µg/mL (≈ 167 µM) | MIC (Klebsiella pneumoniae; [7]): 64 µg/mL (≈ 167 µM) | MBC (Klebsiella pneumoniae; [8]): 8 µg/mL (≈ 20.9 µM) | MIC (Klebsiella pneumoniae; [8]): 8 µg/mL (≈ 20.9 µM) | MBC (Klebsiella pneumoniae; [9]): 64 µg/mL (≈ 167 µM) | MIC (Klebsiella pneumoniae; [9]): 16 µg/mL (≈ 41.7 µM) | MIC50 (Bacteroides spp.; Bacteroides spp.): 0.5 µg/mL (≈ 1.3 µM) | MIC90 (Bacteroides spp.; Bacteroides spp.): 4 µg/mL (≈ 10.4 µM) | MIC (Bacteroides spp.; Bacteroides, KUB No. 2982 Bacteroidesfragilis): 0.12 µg/mL (≈ 0.313 µM) | MIC (Bacteroides spp.; Bacteroides, KUB No. 6464 Bacteroides vulgarus): 0.12 µg/mL (≈ 0.313 µM) | MIC (Bacteroides spp.; Bacteroides, KUB No. 6480 Bacteroides thetaioraomicron): 1 µg/mL (≈ 2.61 µM) | MIC (Bacteroides spp.; Bacteroides, KUB No. 6487 Bacteroides thetaiotamicron): 2 µg/mL (≈ 5.22 µM) | MIC50 (Bacteroides spp.; Bacteroides, n=56, combination: Compound A at 4 ug/mL, read-out: MIC50): 0.5 µg/mL | MIC90 (Bacteroides spp.; Bacteroides, n=56, combination: Compound A at 4 ug/mL, read-out: MIC90): 4 µg/mL | MIC (Bacteroides spp.; KUB No. 2977 Bacteroides thetaiotaomicron ATCC 29741): 0.25 µg/mL (≈ 0.652 µM) | MIC (Bacteroides spp.; KUB No. 2983 Bacteroides fragilis): 4 µg/mL (≈ 10.4 µM) | MIC (Bacteroides spp.; KUB No. 2984 Bacteroides thetaiotaomicron): 0.25 µg/mL (≈ 0.652 µM) | MIC (Bacteroides spp.; KUB No. 3003 Bacteroides fragilis ATCC 25285): 0.12 µg/mL (≈ 0.313 µM) | MIC (Bacteroides spp.; KUB No. 3009 Bacteroides ovatus): 1 µg/mL (≈ 2.61 µM) | MIC (Bacteroides spp.; KUB No. 6458 Bacteroides fragilis): 0.5 µg/mL (≈ 1.3 µM) | MIC (Bacteroides spp.; KUB No. 6459 Bacteroides stercoris): 0.25 µg/mL (≈ 0.652 µM) | MIC (Bacteroides spp.; KUB No. 6460 Bacteroides thetaiotaomicron): 2 µg/mL (≈ 5.22 µM) | MIC (Bacteroides spp.; KUB No. 6461 Bacteroides fragilis): 0.5 µg/mL (≈ 1.3 µM) | MIC (Bacteroides spp.; KUB No. 6463 Bacteroides fragilis): 0.12 µg/mL (≈ 0.313 µM) | MIC (Bacteroides spp.; KUB No. 6465 Bacteroides thetaiotaomicron): 0.5 µg/mL (≈ 1.3 µM) | MIC (Bacteroides spp.; KUB No. 6466 Bacteroides fragilis): 4 µg/mL (≈ 10.4 µM) | MIC (Bacteroides spp.; KUB No. 6467 Bacteroides fragilis): 0.12 µg/mL (≈ 0.313 µM) | MIC (Bacteroides spp.; KUB No. 6468 Bacteroides fragilis): 4 µg/mL (≈ 10.4 µM) | MIC (Bacteroides spp.; KUB No. 6469 Bacteroides fragilis): 0.25 µg/mL (≈ 0.652 µM) | MIC (Bacteroides spp.; KUB No. 6470 Bacteroides fragilis): 0.25 µg/mL (≈ 0.652 µM) | MIC (Bacteroides spp.; KUB No. 6471 Bacteroides fragilis): 0.12 µg/mL (≈ 0.313 µM) | MIC (Bacteroides spp.; KUB No. 6472 Bacteroides stercoris): 1 µg/mL (≈ 2.61 µM) | MIC (Bacteroides spp.; KUB No. 6473 Bacteroides fragilis): 0.25 µg/mL (≈ 0.652 µM) | MIC (Bacteroides spp.; KUB No. 6474 Bacteroides fragilis): 1 µg/mL (≈ 2.61 µM) | MIC (Bacteroides spp.; KUB No. 6475 Bacteroides thetaiotaomicron): 2 µg/mL (≈ 5.22 µM) | MIC (Bacteroides spp.; KUB No. 6476 Bacteroides vulgatus): 0.5 µg/mL (≈ 1.3 µM) | MIC (Bacteroides spp.; KUB No. 6477 Bacteroides fragilis): 4 µg/mL (≈ 10.4 µM) | MIC (Bacteroides spp.; KUB No. 6478 Bacteroides fragilis): 0.12 µg/mL (≈ 0.313 µM) | MIC (Bacteroides spp.; KUB No. 6481 Bacteroides fragilis): 0.12 µg/mL (≈ 0.313 µM) | MIC (Bacteroides spp.; KUB No. 6483 Bacteroides fragilis): 0.12 µg/mL (≈ 0.313 µM) | MIC (Bacteroides spp.; KUB No. 6484 Bacteroides fragilis): 0.25 µg/mL (≈ 0.652 µM) | MIC (Bacteroides spp.; KUB No. 6485 Bacteroides vulgatus): 8 µg/mL (≈ 20.9 µM) | MIC (Bacteroides spp.; KUB No. 6486 Bacteroides fragilis): 0.12 µg/mL (≈ 0.313 µM) | MIC (Bacteroides spp.; KUB No. 6490 Bacteroides fragilis): 64 µg/mL (≈ 167 µM) | MIC (Bacteroides spp.; KUB No. 6491 Bacteroides fragilis): 16 µg/mL (≈ 41.7 µM) | MIC (Bacteroides spp.; KUB No. 6493 Bacteroides thetaiotaomicron): 0.25 µg/mL (≈ 0.652 µM) | MIC (Bacteroides spp.; KUB No. 6496 Bacteroides fragilis): 0.12 µg/mL (≈ 0.313 µM) | MIC (Bacteroides spp.; KUB No. 6497 Bacteroides vulgatus): 0.12 µg/mL (≈ 0.313 µM) | MIC (Bacteroides spp.; KUB No. 6502 Bacteroides fragilis): 16 µg/mL (≈ 41.7 µM) | MIC (Bacteroides spp.; KUB No. 6503 Bacteroides thetaiotaomicron): 0.5 µg/mL (≈ 1.3 µM) | MIC (Bacteroides spp.; KUB No. 6504 Bacteroides caccae): 0.25 µg/mL (≈ 0.652 µM) | MIC (Bacteroides spp.; KUB No. 6506 Bacteroides thetaiotaomicron): 4 µg/mL (≈ 10.4 µM) | MIC (Bacteroides spp.; KUB No. 6509 Bacteroides fragilis): > 512 µg/mL | MIC (Bacteroides spp.; KUB No. 6511 Bacteroides salyersiae): 1 µg/mL (≈ 2.61 µM) | MIC (Bacteroides spp.; KUB No. 6513 Bacteroides fragilis): 0.25 µg/mL (≈ 0.652 µM) | MIC (Bacteroides spp.; KUB No. 6515 Bacteroides thetaiotaomicron): 2 µg/mL (≈ 5.22 µM) | MIC (Bacteroides spp.; KUB No. 6518 Bacteroides fragilis): 0.06 µg/mL (≈ 0.156 µM) | MIC (Bacteroides spp.; KUB No. 6522 Bacteroides fragilis): 0.25 µg/mL (≈ 0.652 µM) | MIC (Bacteroides spp.; KUB No. 6523 Bacteroides fragilis): 4 µg/mL (≈ 10.4 µM) | MIC (Bacteroides spp.; KUB No. 6525 Bacteroides fragilis): 4 µg/mL (≈ 10.4 µM) | MIC (Bacteroides spp.; KUB No. 6527 Bacteroides thetaiotaomicron): 4 µg/mL (≈ 10.4 µM) | MIC (Bacteroides spp.; KUB No. 6530 Bacteroides thetaiotaomicron): 2 µg/mL (≈ 5.22 µM) | MIC (Bacteroides spp.; KUB No. 6535 Bacteroides fragilis): 0.12 µg/mL (≈ 0.313 µM) | MIC (Bacteroides spp.; KUB No. 6544 Bacteroides vulgatus): 1 µg/mL (≈ 2.61 µM) | MIC (Bacteroides spp.; KUB No. 6545 Bacteroides thetaiotaomicron): 2 µg/mL (≈ 5.22 µM) | MIC (Bacteroides spp.; KUB No. 6556 Bacteroides vulgatus): 1 µg/mL (≈ 2.61 µM) | MBC (Enterobacter aerogenes): 8 µg/mL (≈ 20.9 µM) | MIC (Enterobacter aerogenes): 4 µg/mL (≈ 10.4 µM) | MIC (Serratia marcescens): 64 µg/mL (≈ 167 µM) | MBC [1]: 32 µg/mL (≈ 83.4 µM) | MIC [1]: 32 µg/mL (≈ 83.4 µM) | MBC (Morganella morganii): 8 µg/mL (≈ 20.9 µM) | MIC (Morganella morganii): 8 µg/mL (≈ 20.9 µM)
